How the values were obtained:
[1] = tested on: Mice; test: Analgesic activity by pressure stimulation method, Method A (UGO BASILE analgesy meter Model 7,200, tail pressure in grams); assay type: in vivo; conditions: for ED50: Mus musculus, read-out: ED50 (dose that induced 50 percent of % of MPE)
Experimental: (§1) The analgesic activities of the peptide derivatives of the present invention were evaluated by the pressure stimulation method using one of two devices. In method A, analgesy meter Model 7,200 manufactured by UGO BASILE (Comerio, Italy) was used (units of tail pressure expressed in grams). In method B, an apparatus made by inventor Professor S. Sakurada was used (units of tail pressure expressed in mmHg). Mice were subjected to pressure stimulation at the bases of their tails at a given rate(Method A: 32 g/s; Method B: 10 mmHg/second). […] For the experiments, mice that normally responded to a given pressure of 100-200 g (Method A) or 40-50 mmHg (Method B) were used. The maximum stimulating pressure was 500 g (Method A) or 100 mmHg (Method B). Analgesic activity was calculated as percent of maximum possible effect (% of MPE) according to the equation: [formula]
(§2) Wherein Po is the pain reaction threshold before the administration of a drug; Pt is the pain reaction threshold “t” minutes after the administration of the drug; and Pc is the maximum stimulating pressure. ED5 0 values were calculated based on dose response curves as doses that induced 50 percent of % of MPE and analgesic activities of the drugs were compared. The results obtained from subcutaneous administration (s.c.; skin on the backs of the mice was used) and oral administration (p.o.) are shown in Table 3.

[2] = tested on: Mice; test: Analgesic activity by pressure stimulation method, Method B (apparatus made by Professor S. Sakurada, tail pressure in mmHg); assay type: in vivo; conditions: for ED50: Mus musculus, read-out: ED50 (dose that induced 50 percent of % of MPE)
Experimental: as §1, §2

Molecule | ED50 (dose that induced 50 percent of % of MPE) ([2]; s.c.) [mg/kg] | ED50 (dose that induced 50 percent of % of MPE) ([1]; p.o.) [mg/kg] | ED50 (dose that induced 50 percent of % of MPE) ([1]; s.c.) [mg/kg] | also measured
CN1CC[C@]23c4c5ccc(O)c4O[C@H]2[C@@H](O)C=C[C@H]3[C@H]1C5 [morphine, reference compound] |  |  |  | ED50 ([1]; po): 22.2 mg/kg; ED50 ([1]; sc): 3.3 mg/kg; ED50 ([2]; po): 29.6 mg/kg; ED50 ([2]; sc): 4.6 mg/kg
H2NC(NH)-Tyr-D-Arg-Phe-N(Me)2 | 1.22 |  |  | 
H2NC(NH)-Tyr-D-Arg-Phe-NHCH2CH2COOH |  | 18.5 | 0.32 | 
H2NC(NH)-Tyr-D-Arg-Phe-N(CH3)CH2CH2COOH |  | 5.8 | 0.09 | 
H2NC(NH)-Tyr-D-Arg-Phe-N(CH3)CH2COOH | 0.13 |  |  | ED50 (dose that induced 50 percent of % of MPE) ([2]; p.o.): 4.9 mg/kg
H2NC(NH)-Tyr-D-Arg-Phe-N(CH3)CH2COHN2 | 0.27 |  |  | 
